Laboratory results as given in US11970497B2, “Tricyclic AKR1C3 dependent KARS inhibitors” (Novartis AG, priority 2019, dated 2024).

How the values were obtained:
Experiment in all cases: Expanded lung cancer cell line proliferation assay
Format in all cases: cell-based
NCI-H1838 = conditions: Homo sapiens; NCI-H1838, 72 h, average of PrestoBlue and Cell Titer Glo; AKR1C3 1.8 TPM; read-out: Absolute Qualified AC50
Summary of the method: (§1)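 Seed 1000–2000 cells/well in RPMI-1640 + 10% FBS; overnight 37 °C; Day 0 plate read for fold-growth tracking; add compound (8-pt, 1:3.16, top 1 μM, triplicate); incubate 72 h; read PrestoBlue then CellTiter-Glo; NC1 normalization gives AC50.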

NCI-H322 = conditions: NCI-H322, 72 h, average of PrestoBlue and Cell Titer Glo; AKR1C3 21 TPM; read-out: Absolute Qualified AC50
Summary of the method: as §1

VMRC-LCD = conditions: 72 h, average of PrestoBlue and Cell Titer Glo, AKR1C3 expression: no data available, read-out: Absolute Qualified AC50
Summary of the method: as §1

NCI-H2030 = conditions: Homo sapiens; NCI-H2030, 72 h, average of PrestoBlue and Cell Titer Glo; AKR1C3 232.7 TPM; read-out: Absolute Qualified AC50
Summary of the method: as §1

ChaGo-K-1 = conditions: Homo sapiens; ChaGo-K-1, 72 h, average of PrestoBlue and Cell Titer Glo; AKR1C3 1.5 TPM; read-out: Absolute Qualified AC50
Summary of the method: as §1

A427 = conditions: Homo sapiens, A-427; A427, 72 h, average of PrestoBlue and Cell Titer Glo; AKR1C3 0.2 TPM; read-out: Absolute Qualified AC50
Summary of the method: as §1

NCI-H1581 = conditions: Homo sapiens; NCI-H1581, 72 h, average of PrestoBlue and Cell Titer Glo; AKR1C3 1.9 TPM; read-out: Absolute Qualified AC50
Summary of the method: as §1

NCI-H1703 = conditions: Homo sapiens; NCI-H1703, 72 h, average of PrestoBlue and Cell Titer Glo; AKR1C3 3.2 TPM; read-out: Absolute Qualified AC50
Summary of the method: as §1

BEN = conditions: 72 h, average of PrestoBlue and Cell Titer Glo, AKR1C3 2573.5 TPM, read-out: Absolute Qualified AC50
Summary of the method: as §1

NCI-H1435 = conditions: NCI-H1435, 72 h, average of PrestoBlue and Cell Titer Glo; AKR1C3 171.1 TPM; read-out: Absolute Qualified AC50
Summary of the method: as §1

LCLC-103H = conditions: Homo sapiens, 72 h, average of PrestoBlue and Cell Titer Glo, AKR1C3 2.6 TPM, read-out: Absolute Qualified AC50
Summary of the method: as §1

NCI-H460 = conditions: Homo sapiens; NCI-H460, 72 h, average of PrestoBlue and Cell Titer Glo; AKR1C3 865.3 TPM; read-out: Absolute Qualified AC50
Summary of the method: as §1

CAL-12T = conditions: Homo sapiens, 72 h, average of PrestoBlue and Cell Titer Glo, AKR1C3 23.6 TPM, read-out: Absolute Qualified AC50
Summary of the method: as §1

NCI-H2405 = conditions: Homo sapiens; NCI-H2405, 72 h, average of PrestoBlue and Cell Titer Glo; AKR1C3 189.1 TPM; read-out: Absolute Qualified AC50
Summary of the method: as §1

| SMILES | AC50 (NCI-H1838) | AC50 (NCI-H322) | AC50 (VMRC-LCD) | AC50 (NCI-H2030) | AC50 (ChaGo-K-1) | AC50 (A427) | AC50 (NCI-H1581) | AC50 (NCI-H1703) | AC50 (BEN) | AC50 (NCI-H1435) | AC50 (LCLC-103H) | AC50 (NCI-H460) | AC50 (CAL-12T) | AC50 (NCI-H2405) |
| --- | --- | --- | --- | --- | --- | --- | --- | --- | --- | --- | --- | --- | --- | --- |
| CN1c2ccc(F)cc2C(=O)CC12CCN(C(=O)NCc1ccc(F)c(NCCO)c1)CC2 [Example 36, 6′-fluoro-N-(4-fluoro-3-((2-hydroxyethyl)amino)benzyl)-1′-methyl-4′-oxo-3′,4′-dihydro-1′H-spiro[piperidine-4,2′-quinoline]-1-carboxamide] | > 1000 nM | > 1000 nM | 474 nM | 648 nM | > 1000 nM | > 1000 nM | > 1000 nM | > 1000 nM | 399 nM | 478 nM | > 1000 nM | 268 nM | > 1000 nM | 994 nM |
| O=C1CC2(CCN(C(=O)NCc3ccc(F)cc3)CC2)Nc2ccc(F)cc21 [Example 40] | > 1000 nM | > 1000 nM | 330 nM | 364 nM | > 1000 nM | > 1000 nM | > 1000 nM | > 1000 nM | 57 nM | 273 nM | > 1000 nM | 50 nM | > 1000 nM | 474 nM |
